Assay results from ChEMBL document CHEMBL1201862, “PubChem BioAssay data set” (2004).
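Grown in 96-well plates, cells were treated for 48 hours with each compound at five concentrations. Insufficient inhibition: endpoint recorded as highest concentration tested. Abbreviation: GI50, concentration required for 50% inhibition of growth.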 Calls of active or inactive are those of the source. Rule as the data show it: active = GI50 up to about 1.1 µM and inactive = higher. Residues, ends and D or L forms follow the SMILES beside them. *: point of attachment. Boc = CC(C)(C)OC(=O)*; OBn = c1ccc(CO*)cc1

Assays:
Experiment in all cases: NCI tumour cell line growth inhibition, 48 h
[1] = tested on: Hs-578T
[2] = tested on: SN12C
[3] = tested on: UO-31
[4] = tested on: SF-268
[5] = tested on: NCI-H23
[6] = tested on: SK-MEL-28
[7] = tested on: HCT-15
[8] = tested on: MOLT-4
[9] = tested on: TK-10
[10] = tested on: OVCAR-3
[11] = tested on: CCRF-CEM
[12] = tested on: IGROV-1
[13] = tested on: NCI-H460
[14] = tested on: MCF7
[15] = tested on: OVCAR-5
[16] = tested on: SK-OV-3
[17] = tested on: NCI-H522
[18] = tested on: M14
[19] = tested on: OVCAR-4
[20] = tested on: HCC 2998

Compound | GI50 [1] | GI50 [2] | GI50 [3] | GI50 [4] | GI50 [5] | GI50 [6] | GI50 [7] | GI50 [8] | GI50 [9] | GI50 [10] | GI50 [11] | GI50 [12] | GI50 [13] | GI50 [14] | GI50 [15] | GI50 [16] | GI50 [17] | GI50 [18] | GI50 [19] | GI50 [20]
C/C(=N\Nc1cc(CN2CCCC2)c(-c2ccc(Cl)cc2)nn1)C(=O)O | > 100 µM (inactive) | > 100 µM (inactive) | > 100 µM (inactive) | > 100 µM (inactive) | > 100 µM (inactive) | > 100 µM (inactive) | > 100 µM | > 100 µM (inactive) | > 100 µM (inactive) | 90.2 µM (inactive) | > 100 µM (inactive) | > 100 µM (inactive) | > 100 µM (inactive) | > 100 µM (inactive) | > 100 µM (inactive) | > 100 µM (inactive) | > 100 µM (inactive) | > 100 µM (inactive) | > 100 µM (inactive) | –
CC[C@]12C=CCN3CCC4(c5cc(/N=N/c6ccccc6)c(OC)cc5N(C)[C@H]4[C@@](O)(C(=O)OC)[C@@H]1OC(C)=O)[C@@H]32 (stereo partly drawn) | 17.8 µM (inactive) | 18.6 µM (inactive) | 14.6 µM (inactive) | 18.2 µM (inactive) | 15.3 µM (inactive) | 20.3 µM (inactive) | 17.3 µM | 13.6 µM (inactive) | 17.6 µM (inactive) | 12.8 µM (inactive) | – | 17.3 µM (inactive) | 16 µM (inactive) | 16.3 µM (inactive) | 17 µM (inactive) | – | 16.1 µM (inactive) | 20.6 µM (inactive) | 17.1 µM (inactive) | 17.9 µM (inactive)
O=c1ccc(=O)c2c1c1[nH]c3ccccc3c1c1c(=O)c3ccccc3c(=O)c21 | > 10 µM (inactive) | > 10 µM (inactive) | 5.66 µM (inactive) | > 10 µM (inactive) | > 10 µM (inactive) | > 10 µM (inactive) | > 10 µM | 3.24 µM (inactive) | 4.92 µM (inactive) | > 10 µM (inactive) | 3.19 µM (inactive) | > 10 µM (inactive) | > 10 µM (inactive) | – | > 10 µM (inactive) | > 10 µM (inactive) | > 10 µM (inactive) | > 10 µM (inactive) | > 10 µM (inactive) | > 10 µM (inactive)
O=C(O)C1C2CCC(O2)C1C(=O)Nc1cccc2cccnc12 (stereo not drawn) | 93.5 µM (inactive) | > 100 µM (inactive) | > 100 µM (inactive) | – | > 100 µM (inactive) | > 100 µM (inactive) | > 100 µM | – | > 100 µM (inactive) | > 100 µM (inactive) | – | > 100 µM (inactive) | 55.5 µM (inactive) | > 100 µM (inactive) | > 100 µM (inactive) | > 100 µM (inactive) | 88.5 µM (inactive) | > 100 µM (inactive) | > 100 µM (inactive) | 31.1 µM (inactive)
Cn1c2ccccc2c(=O)c2cccc(C(=O)NCC(=O)O)c21 | > 100 µM (inactive) | > 100 µM (inactive) | > 100 µM (inactive) | > 100 µM (inactive) | > 100 µM (inactive) | > 100 µM (inactive) | > 100 µM | > 100 µM (inactive) | > 100 µM (inactive) | > 100 µM (inactive) | – | 85.1 µM (inactive) | > 100 µM (inactive) | > 100 µM (inactive) | > 100 µM (inactive) | > 100 µM (inactive) | – | > 100 µM (inactive) | > 100 µM (inactive) | > 100 µM (inactive)
COc1ccc(Nc2nnc(-c3nsc4ccccc34)s2)cc1 | 21.9 µM (inactive) | > 61.4 µM (inactive) | 10.2 µM (inactive) | 33.5 µM (inactive) | > 100 µM (inactive) | > 100 µM (inactive) | 62.8 µM | 46.5 µM (inactive) | > 49.3 µM (inactive) | 63 µM (inactive) | 34.7 µM (inactive) | > 100 µM (inactive) | 15 µM (inactive) | 81.3 µM (inactive) | > 100 µM (inactive) | 2.52 µM (inactive) | – | > 100 µM (inactive) | 2.47 µM (inactive) | > 56.4 µM (inactive)
COc1nc2ncc([C@@H](O)[C@H](O)CO)nc2c(=O)n1C | > 100 µM (inactive) | > 100 µM (inactive) | > 100 µM (inactive) | > 100 µM (inactive) | – | > 100 µM (inactive) | > 100 µM | > 100 µM (inactive) | > 100 µM (inactive) | > 100 µM (inactive) | > 100 µM (inactive) | > 100 µM (inactive) | > 100 µM (inactive) | > 100 µM (inactive) | > 100 µM (inactive) | > 100 µM (inactive) | > 100 µM (inactive) | > 100 µM (inactive) | > 100 µM (inactive) | –
O=C(OCCN=c1c2ccccc2ccc2ccccc12)c1ccc([N+](=O)[O-])cc1 | > 100 µM (inactive) | > 100 µM (inactive) | > 100 µM (inactive) | > 100 µM (inactive) | > 100 µM (inactive) | > 100 µM (inactive) | > 100 µM | > 100 µM (inactive) | > 100 µM (inactive) | > 100 µM (inactive) | > 100 µM (inactive) | > 100 µM (inactive) | > 100 µM (inactive) | > 100 µM (inactive) | > 100 µM (inactive) | > 100 µM (inactive) | – | > 100 µM (inactive) | > 100 µM (inactive) | > 100 µM (inactive)
Cc1ccc2nc(N/N=C/c3sccc3C)cc(C)c2c1 | 83.2 µM (inactive) | > 100 µM (inactive) | > 100 µM (inactive) | > 100 µM (inactive) | > 100 µM (inactive) | > 100 µM (inactive) | > 100 µM | > 100 µM (inactive) | 29.1 µM (inactive) | > 100 µM (inactive) | > 100 µM (inactive) | 37.2 µM (inactive) | – | 25.3 µM (inactive) | > 100 µM (inactive) | 21.1 µM (inactive) | – | > 100 µM (inactive) | 34.9 µM (inactive) | > 100 µM (inactive)
CSCC[C@H](NC(=O)[C@H](CC(C)C)NC(=O)[C@@H](Cc1ccccc1)NC(=O)CNC(=O)[C@@H](NC(=O)[C@H](C)NC(=O)[C@H](Cc1c[nH]c2ccccc12)NC(=O)[C@H](CCC(N)=O)NC(=O)[C@H](N)CC(N)=O)C(C)C)C(N)=O | > 12.5 µM (inactive) | > 12.5 µM (inactive) | – | > 12.5 µM (inactive) | > 12.5 µM (inactive) | > 12.5 µM (inactive) | > 12.5 µM | > 12.5 µM (inactive) | > 12.5 µM (inactive) | > 12.5 µM (inactive) | > 12.5 µM (inactive) | > 12.5 µM (inactive) | > 12.5 µM (inactive) | > 12.5 µM (inactive) | > 12.5 µM (inactive) | > 12.5 µM (inactive) | – | > 12.5 µM (inactive) | > 12.5 µM (inactive) | > 12.5 µM (inactive)
CC(=O)OCC1OC(n2c(C)c(/N=N/c3ccc(C)cc3)c(C)c(C#N)c2=S)C(OC(C)=O)C(OC(C)=O)C1OC(C)=O (stereo not drawn) | 23.5 µM (inactive) | > 100 µM (inactive) | > 100 µM (inactive) | > 100 µM (inactive) | > 100 µM (inactive) | > 100 µM (inactive) | – | > 100 µM (inactive) | > 100 µM (inactive) | > 100 µM (inactive) | > 100 µM (inactive) | > 100 µM (inactive) | > 100 µM (inactive) | > 100 µM (inactive) | > 100 µM (inactive) | > 100 µM (inactive) | – | 48.6 µM (inactive) | 41.4 µM (inactive) | > 100 µM (inactive)
NS(=O)(=O)c1nnc(NSc2ccc([N+](=O)[O-])cc2)s1 | > 100 µM (inactive) | > 100 µM (inactive) | > 100 µM (inactive) | > 100 µM (inactive) | > 100 µM (inactive) | > 100 µM (inactive) | > 100 µM | 40.8 µM (inactive) | > 100 µM (inactive) | > 100 µM (inactive) | – | – | > 100 µM (inactive) | > 100 µM (inactive) | > 100 µM (inactive) | > 100 µM (inactive) | 23.7 µM (inactive) | > 100 µM (inactive) | 48.9 µM (inactive) | > 100 µM (inactive)
CC12CCC3[C@@H](CC3(C)C)C(O)(CCC1=O)C2 (stereo partly drawn) | > 100 µM (inactive) | > 100 µM (inactive) | > 100 µM (inactive) | > 100 µM (inactive) | > 100 µM (inactive) | > 100 µM (inactive) | > 100 µM | > 100 µM (inactive) | > 100 µM (inactive) | > 100 µM (inactive) | > 100 µM (inactive) | > 100 µM (inactive) | – | > 100 µM (inactive) | > 100 µM (inactive) | > 100 µM (inactive) | – | > 100 µM (inactive) | > 100 µM (inactive) | > 100 µM (inactive)
CCN(CC)CCC(=O)/C=C/c1ccccc1 | 14 µM (inactive) | 15.5 µM (inactive) | 13.1 µM (inactive) | 10.3 µM (inactive) | 18.2 µM (inactive) | 15.2 µM (inactive) | 15.6 µM | 6.3 µM (inactive) | 17.7 µM (inactive) | 3.54 µM (inactive) | 3.57 µM (inactive) | 17.5 µM (inactive) | 12.1 µM (inactive) | 2.48 µM (inactive) | 17.5 µM (inactive) | – | 4.51 µM (inactive) | 15.7 µM (inactive) | 21.1 µM (inactive) | 19.5 µM (inactive)
CC(NC(=O)CNC(=O)OC(C)(C)C)C(=O)NC(Cc1ccccc1)C(=O)OCc1ccccc1 (stereo not drawn) (Boc-Gly-Ala-Phe-OBn; configuration not given here) | 11.2 µM (inactive) | > 100 µM (inactive) | > 100 µM (inactive) | 86.9 µM (inactive) | > 100 µM (inactive) | 36.5 µM (inactive) | > 100 µM | 36 µM (inactive) | > 100 µM (inactive) | – | 40.9 µM (inactive) | > 100 µM (inactive) | – | > 100 µM (inactive) | > 100 µM (inactive) | > 100 µM (inactive) | 68.4 µM (inactive) | > 100 µM (inactive) | > 100 µM (inactive) | –
